Assay results taken from ChEMBL document CHEMBL1147168, “Quinuclidines as selective agonists for alpha-7 nicotinic acetylcholine receptors” (Bioorg Med Chem Lett, 2007).

Biological target: Neuronal acetylcholine receptor subunit alpha-7 (Homo sapiens, UniProt P36544)
Assay: Agonist activity at nAChR alpha-7 expressed in Xenopus oocytes
Type: functional, cell-based, Oocyte

Neuronal acetylcholine receptor subunit alpha-7, sequence (P36544 whole entry): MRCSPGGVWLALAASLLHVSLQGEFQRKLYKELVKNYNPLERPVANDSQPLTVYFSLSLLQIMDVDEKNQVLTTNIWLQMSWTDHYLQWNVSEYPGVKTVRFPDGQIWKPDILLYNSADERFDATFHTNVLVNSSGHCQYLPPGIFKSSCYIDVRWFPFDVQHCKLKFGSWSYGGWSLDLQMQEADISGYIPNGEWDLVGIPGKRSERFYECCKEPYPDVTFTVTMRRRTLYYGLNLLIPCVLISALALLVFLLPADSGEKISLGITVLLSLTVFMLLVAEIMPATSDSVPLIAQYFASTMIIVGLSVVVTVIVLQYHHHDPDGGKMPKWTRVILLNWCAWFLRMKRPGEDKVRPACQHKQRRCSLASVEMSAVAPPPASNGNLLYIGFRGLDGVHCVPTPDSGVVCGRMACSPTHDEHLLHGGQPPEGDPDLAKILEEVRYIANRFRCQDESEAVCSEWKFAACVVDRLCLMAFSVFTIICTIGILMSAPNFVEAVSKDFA

C(=C1\CN2CCC1CC2)/c1ccccc1
EC50: 1500 nM

COc1ccc(/C=C2/CN3CCC2CC3)cc1
EC50: 1300 nM
